Laboratory results from patent US9771334B2, “Triketone compound and preparation method and use thereof” (SHANDONG CYNDA CHEMICAL CO., LTD., priority 2013, dated 2017).

Columns and labels:
Assay in all cases: Herbicidal activity, pot culture method (primary and secondary screening test)
Assay type in all cases: in vivo
Settings in all cases: primary screening, pot culture, 150 g/ha, sprayed at 3-leaf stage, result 15 days later
digitaria sanguinalis = system: digitaria sanguinalis
Excerpt: (§1) This test example is for describing the herbicidal activity inhibition ratio (%) (the dose is 150 g/ha) of the compound with a structure shown in Formula (I). Primary screening test (pot culture method): The test targets are abutilon theophrasti, digitaria sanguinalis, amaranthus retroflexus, echinochloa crusgalli, eclipta prostrata and setaria viridis. Take flowerpots with an inner diameter of 6 cm, put composite soil (vegetable garden soil:seedling matrix=1:2, v/v) into them till 3⁄4 of flowerpot height, directly sow the above six weed targets (budding rate>85%), cover them with 0.2 cm thick soil, and keep them for future use when the weeds grow to 3-leaf stage. Each compound is dissolved in N,N-dimethylformamide at a dose of 150 g/ha and diluted with distilled water into a 0.2 g/L solution. The solution is sprayed through an automatic spray tower. After the solution on weed leaves is aired dry, the flowerpots are moved into a greenhouse for cultivation. The result is investigated 15 days later. By the same method adopted in primary screening test, a secondary screening test is done on some typical compounds, such as: 5, 6, 20, 21, 23, 34, 47, 65, 66, 70 and 91 at a reduced dose, and the test result is compared with mesotrione which is commercially available and has a good herbicidal effect. The test method is same as that adopted in primary screening test. Mesotrione is bought from Hubei […] Chemical Co., Ltd.

eclipta prostrata = system: eclipta prostrata
Excerpt: as §1

setaria viridis = system: setaria viridis
Excerpt: as §1

echinochloa crusgalli = system: echinochloa crusgalli
Excerpt: as §1

amaranthus retroflexus = system: amaranthus retroflexus
Excerpt: as §1

abutilon theophrasti = system: abutilon theophrasti
Excerpt: as §1

Structure (SMILES) | herbicidal activity inhibition ratio (%), Digitaria sanguinalis (digitaria sanguinalis) [%] | herbicidal activity inhibition ratio (%), Eclipta prostrata (eclipta prostrata) [%] | herbicidal activity inhibition ratio (%), Setaria viridis (setaria viridis) [%] | herbicidal activity inhibition ratio (%), Echinochloa crusgalli (echinochloa crusgalli) [%] | herbicidal activity inhibition ratio (%), Amaranthus retroflexus (amaranthus retroflexus) [%] | herbicidal activity inhibition ratio (%), Abutilon theophrasti (abutilon theophrasti) [%]
CCn1c(=O)n(-c2ccc(Cl)cc2)c(=O)c2cc(C(=O)C3=C(O)CCCC3=O)ccc21 [Compound 43] | 60 | 83 | 50 | 80 | 98 | 65
Cn1c(=O)n(-c2cccc3ccccc23)c(=O)c2cc(C(=O)C3=C(O)CCCC3=O)ccc21 [Compound 44] | 75 | 0 | 60 | 65 | 100 | 85
Cn1c(=O)n(-c2cccc(Br)c2)c(=O)c2cc(C(=O)C3=C(O)CC(C)(C)CC3=O)ccc21 [Compound 24] | 60 | 83 | 10 | 30 | 80 | 93
Cc1ccccc1-n1c(=O)[nH]c2ccc(C(=O)C3=C(O)CCCC3=O)cc2c1=O [Compound 68] | 0 | 0 | 10 | 0 | 0 | 15
COc1ccccc1-n1c(=O)c2cc(C(=O)C3=C(O)CC(C)(C)CC3=O)ccc2n(C)c1=O [Compound 48] | 85 | 85 | 50 | 85 | 95 | 50
Cn1c(=O)n(-c2ccc(Br)cc2)c(=O)c2cc(C(=O)C3=C(O)CC(C)(C)CC3=O)ccc21 [Compound 26] | 93 | 88 | 30 | 85 | 100 | 100
Cn1c(=O)n(-c2ccc(F)cc2)c(=O)c2cc(C(=O)C3=C(O)CC(C)(C)CC3=O)ccc21 [Compound 22] | 95 | 90 | 95 | 80 | 100 | 100
C#CCn1c(=O)n(-c2ccccc2C)c(=O)c2cc(C(=O)C3=C(O)CCCC3=O)ccc21 [Compound 77] | 0 | 35 | 20 | 50 | 90 | 90
Cc1ccc(Cl)cc1-n1c(=O)c2cc(C(=O)C3=C(O)CC(C)(C)CC3=O)ccc2n(C)c1=O [Compound 37] | 83 | 80 | 40 | 80 | 95 | 65
C#CCn1c(=O)n(-c2ccccc2C)c(=O)c2cc(C(=O)C3=C(O)CC(C)(C)CC3=O)ccc21 [Compound 78] | 0 | 0 | 10 | 0 | 0 | 0
Cc1ccc(-n2c(=O)c3cc(C(=O)C4=C(O)CCCC4=O)ccc3n(C)c2=O)cc1 [Compound 14] | 75 | 75 | 75 | 75 | 100 | 75
Cn1c(=O)n(-c2cccc(Cl)c2)c(=O)c2cc(C(=O)C3=C(O)CC(C)(C)CC3=O)ccc21 [Compound 4] | 100 | 90 | 90 | 85 | 100 | 100
Cc1ccccc1-n1c(=O)c2cc(C(=O)C3=C(O)CCCC3=O)ccc2n(C)c1=S [Compound 86] | 30 | 30 | 10 | 85 | 0 | 20
Cn1c(=O)n(-c2ccc(Cl)cc2)c(=O)c2cc(C(=O)C3=C(O)CCCC3=O)ccc21 [Compound 1, 3-(4-chlorphenyl)-6-[(2-hydroxy-6-oxo-1-cyclohexenyl)carbonyl]-1-methylquinazoline-2,4(1H,3H)-dione] | 90 | 85 | 100 | 90 | 90 | 90
Cn1c(=O)n(-c2cc(C(F)(F)F)ccc2Cl)c(=O)c2cc(C(=O)C3=C(O)CC(C)(C)CC3=O)ccc21 [Compound 61] | 25 | 20 | 10 | 0 | 0 | 65
COc1ccc(-n2c(=O)c3cc(C(=O)C4=C(O)CCCC4=O)ccc3n(C)c2=O)cc1 [Compound 57] | 75 | 80 | 50 | 85 | 95 | 60
COc1ccccc1-n1c(=O)c2cc(C(=O)C3=C(O)CCCC3=O)ccc2n(C)c1=O [Compound 29] | 88 | 65 | 60 | 90 | 100 | 90
Cn1c(=O)n(-c2ccc(Cl)cc2Cl)c(=O)c2cc(C(=O)C3=C(O)CCCC3=O)ccc21 [Compound 62] | 65 | 20 | 93 | 83 | 88 | 100
